Test results as given in patent publication US11793816B2, “Methods for enhancing cytotoxic cancer therapy through inhibition of ATG4B” (Northwestern University, priority 2019, dated 2023).

Columns and labels:
[1] = test system: LC3B puncta in GSC M83 and JK83 cells; test: LC3B immunofluorescence (puncta, autophagosomes); assay type: cell-based; conditions: NSC in cells treated with AZD2014
Experimental: (§1) FIG. 6. NSC enhanced the cytotoxicity of a mTORC1/2 inhibitor AZD2014 in GSCs. (A) GSC M83 and JK83 were exposed to DMSO control vs AZD2014 vs NSCs vs AZD2014 in combination with NSC for 72 hr. Cells were collected for immunoblot analysis using indicated antibodies. (B) Immunofluorescence analyses for LC3B puncta in GSC M83 and JK83 cells with indicated treatments. (C and D) GSC M83 and JK83 and/or neural progenitor cells (NPC) were treated as indicated in (A), cell viability was tested at 72 h after treatment (C), and cell apoptosis was measured by Annexin V FACS assay 48 h after treatment. Data are representative from three independent experiments with similar results.
Immunofluorescent staining. GSCs were seeded onto LabTek CC2-treated tissue culture slides (Thermo Fisher) and cultured for 24 hours. Cells were then fixed with 4% formaldehyde (Fisher) for 15 min, and permeabilized with 0.1% Triton X-100, and then blocked with AquaBlock (East Coast Bio, North Berwick, Me.) for 60 minutes. The slides were incubated with indicated primary antibodies according to the manufacturer's instructions. After being washed for three times with PBS-T, cells were incubated with secondary antibody (Alexa 488 and 594, 1:200) and DAPI-containing mounting solution Vectashield (Vector Laboratories). Cells were analyzed on a Nikon inverted microscope Eclipse Ti-U equipped with a digital camera. […]

[2] = test system: mTORC1 and mTORC2 activity in GSC M83 and JK83 cells; test: Immunoblot of mTORC1 and mTORC2 activity in GSCs; assay type: cell-based; conditions: GSC83 and JK83 cells, 72 hr
Experimental: FIG. 5. A mTORC1/2 inhibitor AZD2014 inhibited cell survival, mTORC1 and mTORC2 activities in GSCs and glioma cells. (A) GSC M83 and JK83 and glioma cells U87 were treated with indicated concentration of AZD2014 for 72 h, then cell viability was evaluated. (B) GSC M83 and JK83 were treated with the indicated concentration of AZD2014 for 1 hr, or with 2 μM AZD2014 for the specified time. Cells were collected for immunoblot analysis. β-actin was used as a loading control; Results are representative of 2 independent experiments. *P<0.05, **P<0.01, paired two-way Student's t-test. Data are representative from three independent experiments with similar results.
as §1
IB assays were performed as previously described (Huang et al., 2016b). Specific antibodies were used according to the manufacturer's instructions: LC3B (#3868S), pAKT (Ser473; 4060), pAKT(Thr308; 4056), AKT (4691), pS6(S235/236; 2211), S6 (2317), phosphorylated 4E-binding protein 1 (p4EBP1) (Thr37/46; 2855), 4EBP1 (9644), p-mTOR (Ser2448; 2971S), p-mTOR (Ser2481; 2974S), mTOR (2972S), pULK1(Ser317; 14202T), pULK1 (Ser757; 8054T), ULK1(6439), LAMP2 (49067S) were from Cell Signaling Technology. Anti-β-actin (SC-47778) and anti-SQSTM1/p62 (SC-28359) antibodies were from Santa Cruz Biotechnology. An anti-Ki-67 antibody (AB9260) was from EMD Millipore.
mTOR kinases are crucial regulators of glioma cell growth, proliferation and survival (Akhavan et al., 2010). […] A strong inhibition was achieved by 1 μM with complete block of mTORC1/2 activities at 2 μM (FIG. 5B).
Since autophagy activation is considered as a cytoprotective factor that contribute to tumor survival when challenged by therapies, it is proposed that block of autophagy activation by NSC would further enhanced the cytotoxicity of dual TORC1/2 inhibitor AZD2014.

S=C(Nc1ccccn1)c1ccccn1 [NSC185058, N-pyridin-2-yl-pyridine-2-carbothioamide]
autophagosomes number (LC3 B immunofluorescence) [1]: markedly decreased | mTOR signaling and ULK1 phosphorylation [2]: without affecting the mTOR signaling and ULK1 activity
